Assay results taken from patent publication US9974782B2, “Phosphodiesterase inhibitors and uses thereof” (THE TRUSTEES OF COLUMBIA UNIVERSITY IN THE CITY OF NEW YORK, priority 2008, dated 2018).
“Also recorded” adds a separate entry of the source. Read-outs that look alike come from different tables or passages of the source.

Assays:
[1] = mouse, in vivo, po
Method: Timeline: 24 h-7 days. In the timeline, no fatal effects were observed.
Dosage: • Single dose at 500 mg/kg, i.p. • Single dose at 1000 mg/kg, i.p. • Single dose at 2000 mg/kg, p.o.

mice infused with Aβ42 = assay: Contextual fear memory in mice infused with Aβ42; format: in vivo, mouse; conditions: 3 or 10 mg/Kg, p.o., immediately after training
Method: Our next goal was to check if YF012403 can attenuate synaptic and cognitive dysfunction in APP/PS1 mice. We induced LTP or contextual fear memory in the presence of oligomeric Aβ42, or vehicle [S18]. In the LTP experiments 200 nM Aβ42 or vehicle were perfused through the bath solution for 20 min prior to the application of the θ-burst. In the behavioral experiments 200 nM Aβ42 or vehicle were bilaterally infused 15 min prior to the foot shock into dorsal hippocampus of the animal that had been pre-implanted with a cannula the week before. Aβ reduced LTP and contextual fear memory (FIG. 49). However, YF012403 (50 nM, for 10 min prior to the θ-burst in the LTP experiments; 3 or 10 mg/Kg, p.o., immediately after training in the behavioral experiments) ameliorated the electrophysiological and behavioral deficits (FIG. 49).

APP/PS1 mice [2] = assay: Morris water maze and probe trial (reference memory); format: in vivo, mouse
Method: To investigate sildenafil effect on long-term memory, reference memory was tested with a Morris water maze task that is known to require hippocampal function^A20 and is impaired after 6 months of age in the APP/PS1 mice^A12. Vehicle-treated transgenic mice needed more time to find the hidden platform after six sessions compared to WT littermates (FIG. 3C). […] This task is performed after the sixth hidden-platform session. The platform is removed from the water and the animals are allowed to search for 60 seconds. A mouse, knowing that the platform was in a certain position, will trawl repeatedly over that position looking for it. […] The amount of time spent in each quadrant of the maze can be used to evaluate the spatial bias of an animal's search pattern. Vehicle-treated WT mice spent more time in the target quadrant (TQ), where the platform had been located during training than in other quadrants, than in the adjacent quadrant to the right (AR), in the adjacent quadrant to the left (AL), or in the opposite quadrant (OQ) (FIG. 3D). Also, sildenafil improved the performance of the APP/PS1 mice which searched more in the quadrant where the platform had been located during training than in other quadrants (FIG. 3D). […] Sildenafil-treated WT mice remembered where the platform was the previous days and spent about the same time as vehicle-treated WT littermates. […] Behavioral Studies-Reference Memory: The task studied with the Morris water maze has been previously described^12. Briefly, mice were trained in 2 daily sessions (4 hours apart), each consisting of 3 trials (1 minute each), for 3 days. Time required to reach the hidden platform was recorded. To test the retention of the spatial memory, 4 probe trials were performed after the training with the platform […]. The maze was divided into 4 quadrants. The percent of time spent in the quadrant that previously contained the platform was recorded and analyzed with a video tracking system ([…] Image).

[3] = in vivo, cited from earlier work
J20 mice = assay: Fear conditioning and RAWM in J20 mice; format: in vivo, mouse
cGMP = conditions: sildenafil 3 mg/kg; cited from earlier work
[4] = system: human Aβ40 and Aβ42 levels; assay: Determination of Aβ levels (ELISA of cerebral cortex)
APP/PS1 mice [5] = assay: Electrophysiological analysis (BST, LTP) of slices from mice previously treated i.p.; format: in vivo, mouse
Method: To add depth to the analysis of the functional changes that underlie the striking effects of sildenafil on APP/PS1 mice behavioral performance, synaptic function in hippocampi from the same mice was examined. […] The drug was administered either acutely or for 1 course of 3 week treatment. […] This dose yields concentrations of 2.5 μM cGMP in the hippocampus^[…]. […] Radial-arm water-maze (RAWM) was performed for 3 weeks. Then, the animals were sacrificed for electrophysiological recordings. To decide the time of administration of sildenafil in the acute experiments, a series of studies was performed in which the inhibitor was injected i.p. at 5 min before the electric shock or at 5 min before the first acquisition trial with the radial arm water maze. […] Thus, all the behavioral experiments on the acute effects of sildenafil reported in the result section were performed with injection after the training. Animals were sacrificed by cervical dislocation followed by decapitation. Hippocampi were quickly removed. Transverse hippocampal slices (400 μm) were cut and recorded according to standard procedures^[…]. For example, following cutting hippocampal slices were transferred to a recording chamber where they were maintained at 29° C. and perfused with artificial cerebrospinal fluid (ACSF) continuously bubbled with 95% O2 and 5% CO2. […] CA1 fEPSPs were recorded by placing both the stimulating and the recording electrodes in CA1 stratum radiatum. BST was assayed either by plotting the peak amplitude of the fiber volley against the slope of the fEPSP, or by plotting the stimulus voltages against slopes of fEPSP. For LTP experiments, a 15 min baseline was recorded every min at an intensity that evokes a response 35% of the maximum evoked response. […] Responses were recorded for 2 hrs after tetanization and measured as field-excitatory-post-synaptic potential (fEPSP) slope expressed as percentage of baseline. The results were expressed as mean±Standard Error Mean (SEM).

[6] = rodents; cited from earlier work
[7] = APP/PS1, 3 mg/Kg i.p. for 3 weeks at 3 months
[8] = APP/PS1 previously treated with sildenafil
[9] = WT previously treated with sildenafil
[10] = WT, 3 mg/Kg i.p. for 3 weeks at 3 months
[11] = treated at 3 months, tested at 6-8 months
[12] = 3-month-old APP/PS1, daily injections for 3 weeks
[13] = APP/PS1 at 7-10 months, injections for 3 weeks at 3 months
[14] = 3 mg/kg, treated at 3 months, tested at 6-8 months
[15] = 6-8 month-old APP/PS1, 3 mg/Kg i.p. for 3 weeks at 3 months of age
[16] = 6-8 month-old WT, 3 mg/Kg i.p. for 3 weeks at 3 months of age
[17] = treated at 3 months, tested at 6-8 months, APP/PS1

With `COc1ccc(CNc2c(CO)cnc3c(C4CC4)cc(C#N)cc23)cc1Cl` [YF012403, 4-(3-chloro-4-methoxybenzylamino)-8-cyclopropyl-3-(hydroxymethyl)-quinoline-6-carbonitrile] the “safe dose in acute toxicity test” value [1] was “up to 2 g/kg” and the “effect on contextual fear memory deficit in Aβ42-infused mice in words” value (mice infused with Aβ42) was “ameliorates the contextual fear memory deficit; also recorded: ameliorated”.
With `CCCc1nn(C)c2c(=O)[nH]c(-c3cc(S(=O)(=O)N4CCN(C)CC4)ccc3OCC)nc12` [sildenafil, 5-[2-ethoxy-5-(4-methyl-1-piperazinylsulphonyl)phenyl]-1-methyl-3-n-propyl-1,6-dihydro-7H-pyrazolo[4,3-d]pyrimidin-7-one] the “minimum time needed to improve performance with the MWM” value (APP/PS1 mice [2]; 3 mg/kg) was 2 weeks, the “minimum time needed to improve performance with the probe trial” value (APP/PS1 mice [2]; 3 mg/kg) was 2 weeks and the “Morris water maze, time to find the hidden platform after six sessions” value (APP/PS1 mice [2]; [7]) was 32.92 ± 3.50 s. For the same compound, the “time to platform as % of vehicle-treated WT mice” value (APP/PS1 mice [2]; [7]) was ~114%, the “probe test, % of time spent in target quadrant (TQ)” value (APP/PS1 mice [2]; [8]) was 32.25±0.58% and the “time in TQ as % of vehicle-treated WT littermates” value (APP/PS1 mice [2]; [8]) was ~97%. The “probe test, % of time spent in target quadrant (TQ)” value (APP/PS1 mice [2]; [9]) was 33.35±1.38%, the “time in TQ as % of vehicle-treated WT littermates” value (APP/PS1 mice [2]; [9]) was ~100% and the “Morris water maze, time to find the hidden platform” value (APP/PS1 mice [2]; [10]) was 25.64 ± 3.16 s. For the same compound, the “time to platform as % of vehicle-treated WT mice” value (APP/PS1 mice [2]; [10]) was ~89%, the “minimum concentration needed to improve performance with the MWM” value (APP/PS1 mice [2]; [11]) was 3 mg/kg and the “minimum concentration needed to improve performance with the probe trial” value (APP/PS1 mice [2]; [11]) was 3 mg/kg. For the same compound, the “ability to cross the BBB in words” value [3] was “reported to cross the blood brain barrier; also recorded: reported to cross the BBB”, the “ability to cross the BBB in words” value ([3]; listed as Sildenafil) was “reported to cross the BBB” and the “effect on contextual learning in words” value (J20 mice; 3 mg/kg i.p. immediately after training) was “improved contextual learning”. For the same compound, the “effect on spatial working memory in words” value (J20 mice; daily injection after training for 3 weeks) was “improved spatial working memory”, the “cGMP concentration in the hippocampus” value (cGMP) was ~2.5 µM and the “minimum time needed for a positive effect on Aβ40 levels” value ([4]; 3 mg/kg at 3 months of age, measured at 7-8 months) was 3 weeks. For the same compound, the “minimum time needed for a positive effect on Aβ40” value ([4]; 3 mg/kg, measured immediately after treatment) was 2 weeks, the “minimum effective dose that decreases Aβ40 and Aβ42 levels” value ([4]; 3-month-old APP/PS1) was 3 mg/kg and the “Aβ40 as % of vehicle-treated APP/PS1 mice” value [4, 12] was ~64%. The Aβ40 level [4, 12] was 1.71±0.22 ng/mg cortex, the “Aβ42 as % of vehicle-treated APP/PS1 mice” value [4, 12] was ~80% and the Aβ42 level [4, 12] was 3.56±0.23 ng/mg cortex. The “effect on Aβ levels in words” value ([4]; APP/PS1, 1.5 mg/kg for 3 weeks) was “did not decrease Aβ levels”, the “Aβ40 as % of vehicle-treated APP/PS1 mice” value [4, 13] was ~65% and the Aβ40 level [4, 13] was 49.59±7.93 ng/mg cortex. The “Aβ42 as % of vehicle-treated APP/PS1 mice” value [4, 13] was ~73%, the Aβ42 level [4, 13] was 32.55±3.27 ng/mg cortex and the “minimum effective dose that decreases Aβ40 and Aβ42 levels” value ([4]; treated at 3 months, measured at 7-10 months) was 3 mg/kg. For the same compound, the “minimum time needed for a positive effect on BST” value (APP/PS1 mice [5]; [14]) was 2 weeks, the “minimum time needed for a positive effect on LTP” value (APP/PS1 mice [5]; [14]) was 2 weeks and the “BST, fEPSP slope” value (APP/PS1 mice [5]; [15]) was 1.03±0.12 V/sec. The “BST, fEPSP slope as % of vehicle-treated APP/PS1 mice” value (APP/PS1 mice [5]; [15]) was ~160%, the “LTP as % of sildenafil-treated WT mice” value (APP/PS1 mice [5]; [15]) was ~100% and the “LTP, % of baseline at 120 min” value (APP/PS1 mice [5]; [15]) was 233.81±30.47%. The “BST, fEPSP slope” value (APP/PS1 mice [5]; [16]) was 1.01±0.12 V/sec, the “BST, slope of input-output curve as % of vehicle-treated WT mice” value (APP/PS1 mice [5]; [16]) was ~94% and the “LTP as % of vehicle-treated mice” value (APP/PS1 mice [5]; [16]) was ~112%. For the same compound, the “LTP, % of baseline” value (APP/PS1 mice [5]; [16]) was 234.67±17.19%, the “minimum concentration needed to improve BST” value (APP/PS1 mice [5]; [17]) was 3 mg/kg and the “minimum concentration needed to improve LTP” value (APP/PS1 mice [5]; [17]) was 3 mg/kg. For the same compound, the in vivo half-life [6] was 24 min.
